Details: Liquid

CCOS(=O)(=O)[O-].CCn1cc[n+](C)c1 [1-ethyl-3-methylimidazolium ethyl sulfate]
mass density [kg/m3]
Details	100 kPa	2500 kPa	5000 kPa	10000 kPa	15000 kPa	20000 kPa	25000 kPa	30000 kPa	35000 kPa
283.15 K	1246.94	1247.9	1248.89	1250.85	1252.79	1254.73	1256.61	1258.47	1260.31
293.15 K	1239.88	1240.89	1241.91	1243.9	1245.88	1247.83	1249.76	1251.66	1253.57
298.15 K	1236.35	1237.35	1238.4	1240.44	1242.46	1244.44	1246.41	1248.35	1250.23
303.15 K	1232.72	1233.78	1234.83	1237	1239.02	1241.03	1243.02	1244.98	1246.84
313.15 K	1226.06	1227.11	1228.18	1230.3	1232.38	1234.45	1236.48	1238.47	1240.45
323.15 K	1219.19	1220.23	1221.36	1223.53	1225.69	1227.8	1229.93	1231.96	1233.91
333.15 K	1212.42	1213.53	1214.66	1216.87	1219.08	1221.24	1223.33	1225.42	1227.46

Reference: the NIST ThermoML archive (doi:10.1016/j.jct.2007.11.011)
